Values of other authors in PubChem BioAssay AID1259409 (Chemical Carcinogenesis Research Information System (CCRIS), 2018).

Tested on: rodent chemically induced tumor inhibition, incidence and multiplicity
Assay: CCRIS tumor inhibitor studies
Details: Dose [Inhibitor]: 0, Route [Inhibitor]: ORAL, Species: RAT

## COc1ccc([C@@H]2CC(=O)c3c(O)cc(O[C@@H]4O[C@H](CO[C@@H]5O[C@@H](C)[C@H](O)[C@@H](O)[C@H]5O)[C@@H](O)[C@H](O)[C@H]4O)cc3O2)cc1O
Carcinogen: 4-NITROQUINOLINE-1-OXIDE, 56-57-5, 500 PPM IN DIET FOR 10 WK BEGINNING 1 WK PRIOR TO CARCINOGEN TREATMENT (STUDY DURATION: 32 WK), Strain/Sex: F344/MALE, Target Tissue: Type of Lesion: TONGUE: CARCINOMA, Dose [Carcinogen]: 20 PPM IN DRINKING WATER FOR 8 WK, Promoter: NONE USED
  tumour outcome (control, treated, inhibition, significance): 13/24 (54%), 4/18 (22%), 59%, p<0.05
Carcinogen: 4-NITROQUINOLINE-1-OXIDE, 56-57-5, 500 PPM IN DIET FOR 10 WK BEGINNING 1 WK PRIOR TO CARCINOGEN TREATMENT (STUDY DURATION: 32 WK), Strain/Sex: F344/MALE, Target Tissue: Type of Lesion: TONGUE: PAPILLOMA, Dose [Carcinogen]: 20 PPM IN DRINKING WATER FOR 8 WK, Promoter: NONE USED
  tumour outcome (control, treated, inhibition, significance): 4/24 (17%), 2/18 (11%), 35%, not significant
Carcinogen: 4-NITROQUINOLINE-1-OXIDE, 56-57-5, 500 PPM IN DIET FOR 22 WK BEGINNING 1 WK POST CARCINOGEN TREATMENT (STUDY DURATION: 32 WK), Strain/Sex: F344/MALE, Target Tissue: Type of Lesion: TONGUE: CARCINOMA, Dose [Carcinogen]: 20 PPM IN DRINKING WATER FOR 8 WK, Promoter: NONE USED
  tumour outcome (control, treated, inhibition, significance): 13/24 (54%), 8/19 (42%), 22%, not significant
Carcinogen: 4-NITROQUINOLINE-1-OXIDE, 56-57-5, 500 PPM IN DIET FOR 22 WK BEGINNING 1 WK POST CARCINOGEN TREATMENT (STUDY DURATION: 32 WK), Strain/Sex: F344/MALE, Target Tissue: Type of Lesion: TONGUE: PAPILLOMA, Dose [Carcinogen]: 20 PPM IN DRINKING WATER FOR 8 WK, Promoter: NONE USED
  tumour outcome (control, treated, inhibition, significance): 4/24 (17%), 1/19 (5%), 71%, not significant
Carcinogen: 4-NITROQUINOLINE-1-OXIDE, 56-57-5, 1000 PPM IN DIET FOR 10 WK BEGINNING 1 WK PRIOR TO CARCINOGEN TREATMENT (STUDY DURATION: 32 WK), Strain/Sex: F344/MALE, Target Tissue: Type of Lesion: TONGUE: PAPILLOMA, Dose [Carcinogen]: 20 PPM IN DRINKING WATER FOR 8 WK, Promoter: NONE USED
  tumour outcome (control, treated, inhibition, significance): 8/17 (47%), 1/19 (5%), 89%, p<0.01
Carcinogen: 4-NITROQUINOLINE-1-OXIDE, 56-57-5, 1000 PPM IN DIET FOR 10 WK BEGINNING 1 WK PRIOR TO CARCINOGEN TREATMENT (STUDY DURATION: 32 WK), Strain/Sex: R344/MALE, Target Tissue: Type of Lesion: TONGUE: SQUAMOUS CELL CARCINOMA, Dose [Carcinogen]: 20 PPM IN DRINKING WATER FOR 8 WK, Promoter: NONE USED
  tumour outcome (control, treated, inhibition, significance): 11/17 (65%), 3/19 (16%), 75%, p<0.005
Carcinogen: 4-NITROQUINOLINE-1-OXIDE, 56-57-5, 1000 PPM IN DIET FOR 22 WK BEGINNING 1 WK POST CARCINOGEN TREATMENT (STUDY DURATION: 32 WK), Strain/Sex: F344/MALE, Target Tissue: Type of Lesion: TONGUE: PAPILLOMA, Dose [Carcinogen]: 20 PPM IN DRINKING WATER FOR 8 WK, Promoter: NONE USED
  tumour outcome (control, treated, inhibition, significance): 8/17 (47%), 2/20 (10%), 79%, p<0.05
Carcinogen: 4-NITROQUINOLINE-1-OXIDE, 56-57-5, 1000 PPM IN DIET FOR 22 WK BEGINNING 1 WK POST CARCINOGEN TREATMENT (STUDY DURATION: 32 WK), Strain/Sex: F344/MALE, Target Tissue: Type of Lesion: TONGUE: SQUAMOUS CELL CARCINOMA, Dose [Carcinogen]: 20 PPM IN DRINKING WATER FOR 8 WK, Promoter: NONE USED
  tumour outcome (control, treated, inhibition, significance): 11/17 (65%), 5/20 (25%), 62%, p<0.05
Carcinogen: AZOXYMETHANE, 25843-45-2, 0.1% IN DIET FOR 4 WK BEGINNING 1 WK PRIOR TO CARCINOGEN TREATMENT (STUDY DURATION: 32 WK), Strain/Sex: F344/MALE, Target Tissue: Type of Lesion: COLON: ADENOCARCINOMA, Dose [Carcinogen]: 15 MG/KG BW 1/WK FOR 3 WK, Promoter: NONE
  tumour outcome (control, treated, inhibition, significance): 70%, 5%, 93%, p<0.001
Carcinogen: AZOXYMETHANE, 25843-45-2, 0.1% IN DIET FOR 28 WK BEGINNING 1 WK POST LAST CARCINOGEN DOSE (STUDY DURATION: 32 WK), Strain/Sex: F344/MALE, Target Tissue: Type of Lesion: COLON: ADENOCARCINOMA, Dose [Carcinogen]: 15 MG/KG BW 1/WK FOR 3 WK, Promoter: NONE
  tumour outcome (control, treated, inhibition, significance): 70%, 17%, 76%, p<0.005
Carcinogen: AZOXYMETHANE, 25843-45-2, 1000 PPM IN DIET FOR 4 WK BEGINNING 1 WK PRIOR TO CARCINOGEN TREATMENT (STUDY DURATION: 32 WK), Strain/Sex: F344/MALE, Target Tissue: Type of Lesion: LARGE INTESTINE: TUMOR, Dose [Carcinogen]: 15 MG/KG BW 1/WK FOR 3 WK, Promoter: NONE USED
  tumour outcome (control, treated, inhibition, significance): 12/17 (71%), 3/19 (16%), 77%, p<0.001
Carcinogen: AZOXYMETHANE, 25843-45-2, 1000 PPM IN DIET FOR 4 WK BEGINNING 1 WK PRIOR TO CARCINOGEN TREATMENT (STUDY DURATION: 32 WK), Strain/Sex: F344/MALE, Target Tissue: Type of Lesion: SMALL INTESTINE: TUMOR, Dose [Carcinogen]: 15 MG/KG BW 1/WK FOR 3 WK, Promoter: NONE USED
  tumour outcome (control, treated, inhibition, significance): 5/17 (29%), 1/19 (5%), 83%, not significant
Carcinogen: AZOXYMETHANE, 25843-45-2, 1000 PPM IN DIET FOR 28 WK BEGINNING 1 WK POST CARCINOGEN TREATMENT (STUDY DURATION: 32 WK), Strain/Sex: F344/MALE, Target Tissue: Type of Lesion: LARGE INTESTINE: TUMOR, Dose [Carcinogen]: 15 MG/KG BW 1/WK FOR 3 WK, Promoter: NONE USED
  tumour outcome (control, treated, inhibition, significance): 12/17 (71%), 3/20 (15%), 79%, p<0.001
